Source: patent US7781592B2, “Thione derivative, method for the preparation thereof, and pharmaceutical composition containing the same” (CJ Cheiljedang Corporation, priority 2003, dated 2010)

How the values were obtained:
COX-2 = target: T1, COX-2 (Mus musculus, UniProt Q05769); assay: Assay for the COX-2 inhibitory activity using Raw 264.7 cell line (PGE2 inhibition); format: cell-based; conditions: RAW264.7; test compound 30 nM; RAW 264.7 cells; aspirin pre-treated, interferon + LPS 18 hours; PGE2 by EIA; read-out: Cyclooxygenase (COX) Inhibition (%) COX-2 (30 nM)
T1 construct: host or cells: RAW 264.7 cells, pre-treated with aspirin, then induced with interferon and LPS
T1 sequence (Q05769 18-604): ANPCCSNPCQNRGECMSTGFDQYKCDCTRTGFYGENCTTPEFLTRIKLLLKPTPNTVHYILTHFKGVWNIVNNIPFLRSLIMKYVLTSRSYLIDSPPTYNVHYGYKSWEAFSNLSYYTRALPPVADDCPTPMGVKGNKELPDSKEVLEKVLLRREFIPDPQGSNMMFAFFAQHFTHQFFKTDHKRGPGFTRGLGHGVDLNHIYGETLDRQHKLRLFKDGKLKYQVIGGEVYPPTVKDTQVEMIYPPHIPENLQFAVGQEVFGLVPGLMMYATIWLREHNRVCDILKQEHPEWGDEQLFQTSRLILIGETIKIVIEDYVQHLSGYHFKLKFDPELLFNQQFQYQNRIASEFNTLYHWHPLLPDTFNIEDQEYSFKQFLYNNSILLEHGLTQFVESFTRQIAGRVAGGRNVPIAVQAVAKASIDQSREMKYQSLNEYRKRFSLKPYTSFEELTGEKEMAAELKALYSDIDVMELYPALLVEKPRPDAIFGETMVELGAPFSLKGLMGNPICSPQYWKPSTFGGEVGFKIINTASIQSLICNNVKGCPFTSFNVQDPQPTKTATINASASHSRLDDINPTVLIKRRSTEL
Method: Each well was treated with 250 μM of aspirin and incubated at 37° C. for 2 hours. After the culture media were replaced with new culture media, the new culture media were treated with a test compound (30 nM) and incubated for 30 minutes. Then, each well was treated with interferon ? (100 units/ml) and lipopolysaccharide (LPS, 100 ng/ml) and incubated for 18 hours. The culture media were transferred to other test tubes. The concentration of PGE2 was quantified by means of the EIA kit (Cayman Chemicals).
(§1) The percentages of the COX inhibition were calculated according to the following equation: % Inhibition=(concentration of PGE2 in test compound-untreated sample−concentration of PGE2 in test compound-treated sample)/(concentration of PGE2 in test compound-untreated sample)×100

COX-1 = target: T2, COX-1 (Homo sapiens, UniProt P23219); assay: Assay for the COX-1 inhibitory activity using U-937 (PGE2 inhibition); format: cell-based; conditions: test compound 1 μM; U-937 human lymphoma cells; arachidonic acid substrate; PGE2 quantified; read-out: Cyclooxygenase (COX) Inhibition (%) COX-1 (1 μM)
T2 construct: host or cells: U-937 human lymphoma cells
T2 sequence (P23219 24-599): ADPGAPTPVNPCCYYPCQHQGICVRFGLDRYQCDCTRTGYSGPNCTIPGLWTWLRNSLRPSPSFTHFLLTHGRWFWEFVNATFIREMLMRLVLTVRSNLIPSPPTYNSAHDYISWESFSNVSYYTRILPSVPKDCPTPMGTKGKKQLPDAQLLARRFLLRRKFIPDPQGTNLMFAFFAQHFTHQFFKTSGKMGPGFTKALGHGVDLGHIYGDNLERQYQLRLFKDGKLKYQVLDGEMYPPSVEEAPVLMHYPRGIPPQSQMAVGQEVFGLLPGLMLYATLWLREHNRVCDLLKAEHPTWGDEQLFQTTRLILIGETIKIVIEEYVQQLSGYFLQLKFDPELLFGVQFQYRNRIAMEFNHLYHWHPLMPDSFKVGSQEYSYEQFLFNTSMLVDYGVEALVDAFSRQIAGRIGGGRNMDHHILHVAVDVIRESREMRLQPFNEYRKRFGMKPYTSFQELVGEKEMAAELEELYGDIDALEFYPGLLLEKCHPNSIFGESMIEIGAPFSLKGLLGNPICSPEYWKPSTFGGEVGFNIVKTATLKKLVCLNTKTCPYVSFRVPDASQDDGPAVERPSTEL
Method: The collected cells were diluted with HBSS (×1, Hank's balanced salt solution) to a concentration of 1×10^6 cells/ml. 1 ml of the dilute cell solution was placed into each well of 12-well plates. 5 μl of 1 μM solution of a test compound in DMSO and 5 μl of DMSO as a control were added to the wells. The wells were incubated in CO2 incubator at 37° C. for 15 minutes. Separately, 10 mM stock solution of arachidonic acid in ethanol was diluted ten times in ethanol to prepare 1 mM solution of arachidonic acid. Arachidonic acid acts as a substrate. 10 μl of the 1 mM solution of arachidonic acid was added to each well and incubated at CO2 incubator at 37° C. for 30 minutes. The cell solution of each well was placed in a centrifuge test tube and centrifuged at 10,000 rpm at 4° C. for 5 minutes. The concentration of PGE2 in the collected cells and the supernatant was quantified by means of a monoclonal kit (Cayman Chemicals). The percentages of PGE2 inhibition in a group of the test compound-treated cells in relation to a group of the DMSO-treated cells were calculated. Based on the calculated values, the COX-1 inhibitory activities were evaluated.
as §1

`CS(=O)(=O)c1ccc(-c2ssc(=S)c2-c2ccc(F)cc2Cl)cc1` [Example 59, 4-(2-chloro-4-fluorophenyl)-5-(4-methanesulfonylphenyl)-[1,2]dithiol-3-thione] gave a melting point of 184 to 185 °C, an inhibition at 0.03 µM (COX-2) of 19.7% and an inhibition at 1 µM (COX-1) of 23.2%.

Compound `COc1ccc(-c2c(-c3ccc(S(C)(=O)=O)cc3)ssc2=S)cc1OC` [Example 60, 4-(3,4-dimethoxyphenyl)-5-(4-methanesulfonylphenyl)-[1,2]dithiol-3-thione] has a melting point of 182 to 183 °C, an inhibition at 0.03 µM (COX-2) of 19.3% and an inhibition at 1 µM (COX-1) of 26.5%.

With `CS(=O)(=O)c1ccc(-c2ssc(=S)c2-c2ccccc2Br)cc1` [Example 61, 4-(2-bromophenyl)-5-(4-methanesulfonylphenyl)-[1,2]dithiol-3-thione] the melting point was 179 to 180 °C, the inhibition at 0.03 µM (COX-2) was 20.1% and the inhibition at 1 µM (COX-1) was 23.3%.

With `CS(=O)(=O)c1ccc(-c2ssc(=S)c2-c2ccccc2F)cc1` [Example 62, 4-(2-fluorophenyl)-5-(4-methanesulfonylphenyl)-[1,2]dithiol-3-thione] the melting point was 173 to 174 °C, the inhibition at 0.03 µM (COX-2) was 21% and the inhibition at 1 µM (COX-1) was 26.6%.

With `CS(=O)(=O)c1ccc(-c2ssc(=S)c2-c2ccc(F)cc2F)cc1` [Example 63, 4-(2,4-difluorophenyl)-5-(4-methanesulfonylphenyl)-[1,2]dithiol-3-thione] the melting point was 148 to 149 °C, the inhibition at 0.03 µM (COX-2) was 21.3% and the inhibition at 1 µM (COX-1) was 20.3%.

With `CS(=O)(=O)c1ccc(-c2ssc(=S)c2-c2ccc(F)c(F)c2)cc1` [Example 64, 4-(3,4-difluorophenyl)-5-(4-methanesulfonylphenyl)-[1,2]dithiol-3-thione] the melting point was 193 to 194 °C, the inhibition at 0.03 µM (COX-2) was 19.8% and the inhibition at 1 µM (COX-1) was 21.6%.

`CC(C)Oc1ccc(-c2c(-c3ccc(S(C)(=O)=O)cc3)ssc2=S)cc1` [Example 67, 4-(4-isopropoxylphenyl)-5-(4-methanesulfonylphenyl)-[1,2]dithiol-3-thione] showed a melting point of 179 to 180 °C, an inhibition at 0.03 µM (COX-2) of 23.3% and an inhibition at 1 µM (COX-1) of 27.5%.

In the case of `CCCOc1ccc(-c2c(-c3ccc(S(C)(=O)=O)cc3)ssc2=S)cc1` [Example 68, 5-(4-methanesulfonylphenyl)-4-(4-propoxyphenyl)-[1,2]dithiol-3-thione], the melting point is reported as 177 to 178 °C, the inhibition at 0.03 µM (COX-2) is reported as 22.7% and the inhibition at 1 µM (COX-1) is reported as 25.5%.

Work on `CC(=O)Oc1ccc(-c2c(-c3ccc(S(C)(=O)=O)cc3)ssc2=S)cc1` [Example 69, Acetic acid 4-[5-(4-methanesulfonylphenyl)-3-thioxo-3H-[1,2]dithiol-4-yl]phenyl ester] yielded a melting point of 241 to 243 °C, an inhibition at 0.03 µM (COX-2) of 21.3% and an inhibition at 1 µM (COX-1) of 24.8%.

For `CCOc1ccc(-c2c(-c3ccc(S(C)(=O)=O)cc3Cl)ssc2=S)cc1` [Example 70, 5-(2-chloro-4-methanesulfonylphenyl)-4-(4-ethoxyphenyl)-[1,2]dithiol-3-thione], the melting point was 190 to 191 °C, the inhibition at 0.03 µM (COX-2) was 36% and the inhibition at 1 µM (COX-1) was 17.5%.

In the case of `CS(=O)(=O)c1ccc(-c2ssc(=S)c2-c2ccc(Br)cc2)c(Cl)c1` [Example 72, 4-(4-bromophenyl)-5-(2-chloro-4-methanesulfonylphenyl)-[1,2]dithiol-3-thione], the melting point is reported as 194 to 195 °C, the inhibition at 0.03 µM (COX-2) is reported as 19.3% and the inhibition at 1 µM (COX-1) is reported as 28.1%.

Compound `COc1ccc(-c2c(-c3ccc(S(C)(=O)=O)cc3Cl)ssc2=S)cc1` [Example 73, 5-(2-chloro-4-methanesulfonylphenyl)-4-(4-methoxyphenyl)-[1,2]dithiol-3-thione] has a melting point of 192 to 193 °C, an inhibition at 0.03 µM (COX-2) of 20.1% and an inhibition at 1 µM (COX-1) of 25.6%.

With `Cc1ccc(-c2c(-c3ccc(F)c(F)c3)ssc2=S)cc1` [Example 74, 5-(3,4-difluorophenyl)-4-p-toryl-[1,2]dithiol-3-thione] the melting point was 140 to 142 °C, the inhibition at 0.03 µM (COX-2) was 19.2% and the inhibition at 1 µM (COX-1) was 26.5%.

`COc1ccc(-c2c(-c3ccc(F)c(F)c3)ssc2=S)cc1` [Example 75, 5-(3,4-difluorophenyl)-4-(4-methoxyphenyl)-[1,2]dithiol-3-thione] gave a melting point of 143 to 145 °C, an inhibition at 0.03 µM (COX-2) of 19.6% and an inhibition at 1 µM (COX-1) of 26.6%.

Compound `CC(=O)Oc1ccc(-c2c(-c3ccc(F)c(F)c3)ssc2=S)cc1` [Example 76, Acetic acid 4-[5-(3,4-difluorophenyl)-3-thioxo-3H-[1,2]dithiol-4-yl]-phenyl ester] has a melting point of 147 to 149 °C, an inhibition at 0.03 µM (COX-2) of 20.3% and an inhibition at 1 µM (COX-1) of 21.6%.

In the case of `CC(=O)Oc1ccc(-c2c(-c3ccc(S(C)(=O)=O)c(F)c3)ssc2=S)cc1` [Example 79, Acetic acid 4-[5-(3-fluoro-4-methanesulfonylphenyl)-3-thioxo-3H-[1,2]dithiol-4-yl]-phenyl ester], the melting point is reported as 200 to 201 °C, the inhibition at 0.03 µM (COX-2) is reported as 30.2% and the inhibition at 1 µM (COX-1) is reported as 19.5%.

Compound `CS(=O)(=O)c1ccc(-c2[nH][nH]c(=S)c2-c2ccc(Cl)c(Cl)c2)cc1` [Example 81, 4-(3,4-dichlorophenyl)-5-(4-methanesulfonylphenyl)-1,2-dihydropyrazole-3-thione] has a melting point of 192 to 193 °C, an inhibition at 0.03 µM (COX-2) of 24.6% and an inhibition at 1 µM (COX-1) of 24.9%.

In the case of `CS(=O)(=O)c1ccc(-c2[nH][nH]c(=S)c2-c2ccc(Cl)cc2)cc1` [Example 82, 4-(4-chlorophenyl)-5-(4-methanesulfonylphenyl)-1,2-dihydropyrazole-3-thione], the melting point is reported as 211 to 213 °C, the inhibition at 0.03 µM (COX-2) is reported as 22.2% and the inhibition at 1 µM (COX-1) is reported as 24.3%.
